Measured values reported in PMC8357188 (Nature biomedical engineering, 2020).

Tested on: porcine jejunum tissue
Assay: GI-TRIS intestinal transport experiments
Type: in vitro ADME, pig

- increase in intestinal transport when formulated with polyethyleneimine: limited increase
Substance: carbetocin acetate
